Assay results from the CheMixHub viscosity set.

Assay: xn = mol fraction of the nth substance listed

CC(=O)OCCC1CCCCC1 + CCCCCCCCCCO
viscosity [mPa·s], 101 kPa
Conditions	300 K	310 K	320 K
x2 = 0.1066	2.65	2.14	1.77
x2 = 0.1534	2.74	2.2	1.82
x2 = 0.2863	2.94	2.34	1.91
x2 = 0.337	3.14	2.46	2.01
x2 = 0.4105	3.47	2.72	2.15
x2 = 0.4983	3.91	3.02	2.41
x2 = 0.5476	4.25	3.26	2.56
x2 = 0.6306	4.92	3.76	2.93
x2 = 0.702	5.57	4.15	3.18
x2 = 0.7382	5.93	4.4	3.37
x2 = 0.8402	7.22	5.25	3.94
x2 = 0.9332	8.92	6.35	4.67

CCCCCCCCCO + CCCCCCCCO
viscosity [mPa·s], 101.8 kPa
Conditions	x2 = 0.1095	x2 = 0.3227	x2 = 0.5251	x2 = 0.7208	x2 = 0.9082
298.15 K	9.3	8.885	8.493	8.137	7.796
308.15 K	6.575	6.317	6.057	5.821	5.595
318.15 K	4.761	4.579	4.408	4.248	4.093

CCCCCCCCCO + CCCCCCCO
viscosity [mPa·s], 101.8 kPa
Conditions	x2 = 0.1184	x2 = 0.3815	x2 = 0.5514	x2 = 0.7089	x2 = 0.9183
298.15 K	9.014	7.935	7.47	6.84	6.013
308.15 K	6.366	5.68	5.353	4.96	4.408
318.15 K	4.618	4.157	3.932	3.662	3.286

CCCCCC[n+]1ccn(C)c1.O=[N+]([O-])[O-] + CCCCCCCO
Conditions	viscosity [mPa·s]
308.15 K, 100 kPa, x1 = 0.9381	206.5

CCCCCCCCCO + CCCCCCO
viscosity [mPa·s], 101.8 kPa
Conditions	x2 = 0.1351	x2 = 0.4186	x2 = 0.5817	x2 = 0.7358	x2 = 0.9282
298.15 K	8.731	7.177	6.384	5.606	4.847
308.15 K	6.206	5.187	4.651	4.127	3.596
318.15 K	4.51	3.821	3.453	3.093	2.717

CC(=O)N(C)C + CCCCCO
viscosity [mPa·s], 100 kPa
Conditions	298.15 K	313.15 K
x1 = 0.0569	3.02	2.057
x1 = 0.1068	2.69	1.887
x1 = 0.2009	2.246	1.634
x1 = 0.3051	1.92	1.419
x1 = 0.4017	1.68	1.283
x1 = 0.4989	1.498	1.159
x1 = 0.6011	1.358	1.065
x1 = 0.7029	1.223	0.973
x1 = 0.7966	1.121	0.895
x1 = 0.8962	1.041	0.833
x1 = 0.9519	0.981	0.8

CCC1CCCCC1 + CCCCCO
viscosity [mPa·s], 100 kPa
Conditions	x2 = 0.1003	x2 = 0.2013	x2 = 0.3005	x2 = 0.4001	x2 = 0.5004	x2 = 0.5995	x2 = 0.7009	x2 = 0.8003	x2 = 0.9007
293.15 K	0.91	0.99	1.108	1.248	1.489	1.788	2.169	2.681	3.292
298.15 K	0.845	0.915	1.024	1.177	1.339	1.613	1.948	2.339	2.862
303.15 K	0.785	0.848	0.943	1.071	1.21	1.425	1.724	2.056	2.495
308.15 K	0.728	0.778	0.855	0.942	1.087	1.263	1.501	1.796	2.166
313.15 K	0.682	0.73	0.801	0.882	0.998	1.156	1.337	1.602	1.92
318.15 K	0.651	0.693	0.752	0.834	0.929	1.061	1.246	1.454	1.723
323.15 K	0.61	0.647	0.697	0.773	0.849	0.959	1.115	1.294	1.529

CCOC(=O)c1cccc(O)c1 + CCCCCOC(C)=O
Conditions	viscosity [mPa·s]
298.15 K, 101 kPa, x2 = 0.5	1.587

O=[N+]([O-])c1ccccc1O + CCCCCOC(C)=O
Conditions	viscosity [mPa·s]
298.15 K, 101 kPa, x1 = 0.5	1.051

CC1CCCCC1=O (stereo not drawn) + CCCCN
303.15 K, 101.33 kPa
Conditions	viscosity [mPa·s]
x2 = 0.1214	1.802
x2 = 0.2017	1.906
x2 = 0.3249	1.944
x2 = 0.4512	1.826
x2 = 0.5524	1.715
x2 = 0.6849	1.417
x2 = 0.8025	1.126
x2 = 0.8938	0.855

CC(=O)N1CCOCC1 + CCCCO
viscosity [mPa·s], 101 kPa
Conditions	293.15 K	303.15 K	313.15 K	323.15 K
x1 = 0.0555	4.367	3.576	2.739	1.957
x1 = 0.1321	5.668	4.813	3.879	3.051
x1 = 0.2165	6.805	5.881	5.042	4.16
x1 = 0.2844	7.59	6.613	5.581	4.657
x1 = 0.3126	7.757	6.756	5.6	4.662
x1 = 0.4042	8.369	7.294	6.023	5.03
x1 = 0.4673	8.697	7.57	6.22	5.191
x1 = 0.5033	8.878	7.734	6.31	5.257
x1 = 0.5562	9.001	7.801	6.341	5.256
x1 = 0.6237	9.088	7.833	6.29	5.164
x1 = 0.6431	8.989	7.719	6.152	5.014
x1 = 0.6903	9.041	7.732	6.105	4.937
x1 = 0.7439	8.864	7.512	5.819	4.62
x1 = 0.7911	8.713	7.322	5.569	4.342
x1 = 0.8624	8.88	7.431	5.591	4.32
x1 = 0.9222	8.663	7.164	5.249	3.943
x1 = 0.9785	8.737	7.193	5.209	3.868

CCC1CCCCC1 + CCCCO
viscosity [mPa·s], 100 kPa
Conditions	x2 = 0.1001	x2 = 0.2	x2 = 0.3001	x2 = 0.4	x2 = 0.4999	x2 = 0.5997	x2 = 0.7	x2 = 0.8	x2 = 0.9
293.15 K	0.867	0.908	0.984	1.1	1.254	1.451	1.718	2.051	2.436
298.15 K	0.813	0.849	0.912	1.007	1.142	1.314	1.549	1.817	2.157
303.15 K	0.758	0.793	0.851	0.929	1.045	1.202	1.399	1.625	1.911
308.15 K	0.716	0.744	0.794	0.861	0.958	1.08	1.25	1.465	1.711
313.15 K	0.666	0.692	0.729	0.791	0.871	0.98	1.121	1.303	1.515
318.15 K	0.628	0.646	0.681	0.734	0.803	0.894	1.018	1.174	1.351
323.15 K	0.584	0.604	0.633	0.678	0.737	0.814	0.924	1.058	1.219
